Reference: patent US4368198A, “Cephalosporins” (Sumitomo Chemical Company Limited, priority 1976, dated 1983)
In brackets after ≈: the same amount, converted by molar mass. Like-named read-outs stand apart in the source and are kept apart here.

Assays:
Type in all cases: cell-based
[1] = system: Klebsiella pneumoniae 602; test: antimicrobial activities in in vitro testing (MIC), Klebsiella pneumoniae 602
[2] = system: Staphylococcus aureus 209P; test: antimicrobial activities in in vitro testing (MIC), Staphylococcus aureus 209P
From the text: (§1) The results of the antimicrobial activities of these compounds in in vitro testing in accordance with the recognized method are set forth in the Table below.

Escherichia coli NIHJ = test: antimicrobial activities in in vitro testing (MIC), Escherichia coli NIHJ
[3] = system: Pseudomonas aeruginosa 104; test: antimicrobial activities in in vitro testing (MIC), Pseudomonas aeruginosa 104
From the text: as §1

Proteus vulgaris HX 19 = test: antimicrobial activities in in vitro testing (MIC), Proteus vulgaris HX 19; details: HX19, read-out: Minimum Inhibitory Concentration
From the text: as §1

[4] = system: Staphylococcus aureus FS 289; test: antimicrobial activities in in vitro testing (MIC), Staphylococcus aureus FS 289; details: FS289, read-out: Minimum Inhibitory Concentration
From the text: as §1

[5] = in vitro, read-out: Minimum Inhibitory Concentration
[6] = Staphylococcus aureus 209P, in vitro, read-out: Minimum Inhibitory Concentration
[7] = read-out: antimicrobial activities
[8] = Staphylococcus aureus 209 P, read-out: antimicrobial activities

With `NC(=O)OCC1=C(C(=O)O)N2C(=O)C(NC(=O)[C@H](NC(=O)c3cnc4cccnc4c3O)c3ccc(O)cc3)[C@H]2SC1` (stereo partly drawn) [Example 7, 7-[D-α-(4-Hydroxy-1,5-naphthyridine-3-carboxamido)-α-(p-hydroxyphenyl)acetamido]-3-carbamoyloxymethyl-3-cephem-4-carboxylic acid] the MIC [1, 5] was 1.56 µg/mL (≈ 2.62 µM), the MIC [2, 6] was 0.78 µg/mL (≈ 1.31 µM) and the MIC (Escherichia coli NIHJ; [5]) was 3.13 µg/mL (≈ 5.26 µM). For the same compound, the MIC [3, 5] was 6.25 µg/mL (≈ 10.5 µM), the MIC (Proteus vulgaris HX 19) was 0.78 µg/mL (≈ 1.31 µM) and the MIC [4] was 6.25 µg/mL (≈ 10.5 µM).

`CSc1ncc2c(O)c(C(=O)N[C@@H](C(=O)NC3C(=O)N4C(C(=O)O)=C(COC(N)=O)CS[C@H]34)c3ccc(O)cc3)cnc2n1` (stereo partly drawn) [Example 10, 7-[D-α-(2-Methylthio-5,8-dihydro-5-oxopyrido[2,3-d]-pyrimidine-6-carboxamido)-α-(p-hydroxyphenyl)acetamido]-3-carbamoyloxymethyl-3-cephem-4-carboxylic acid] gave an MIC [1, 5] of 6.25 µg/mL (≈ 9.74 µM), an MIC [2, 6] of 0.78 µg/mL (≈ 1.22 µM) and an MIC (Escherichia coli NIHJ; [5]) of 6.25 µg/mL (≈ 9.74 µM). For the same compound, the MIC [3, 5] was 6.25 µg/mL (≈ 9.74 µM), the MIC (Proteus vulgaris HX 19) was 1.56 µg/mL (≈ 2.43 µM) and the MIC [4] was 3.13 µg/mL (≈ 4.88 µM).

`NC(=O)OCC1=C(C(=O)O)N2C(=O)C(NC(=O)[C@H](NC(=O)c3cnccc3O)c3ccccc3)[C@H]2SC1` (stereo partly drawn) [Example 6, 7-[D-α-(4-Hydroxypyridine-3-carboxamido)-α-phenylacetamido]-3-carbamoyloxymethyl-3-cephem-4-carboxylic acid] gave an MIC [1, 5] of 12.5 µg/mL (≈ 23.7 µM), an MIC [2, 6] of 0.39 µg/mL (≈ 0.739 µM) and an MIC (Escherichia coli NIHJ; [5]) of 12.5 µg/mL (≈ 23.7 µM). The MIC [3, 5] was 12.5 µg/mL (≈ 23.7 µM), the MIC (Proteus vulgaris HX 19) was 0.2 µg/mL (≈ 0.379 µM) and the MIC [4] was 3.13 µg/mL (≈ 5.93 µM).

For `NC(=O)OCC1=C(C(=O)O)N2C(=O)C(NC(=O)[C@H](NC(=O)c3cnc4cccnc4c3O)c3cccc(N)c3)C2SC1` (some centres unmarked) [Example 9], the MIC [1, 5] was 1.56 µg/mL (≈ 2.63 µM), the MIC [2, 6] was 0.78 µg/mL (≈ 1.31 µM) and the MIC (Escherichia coli NIHJ; [5]) was 1.56 µg/mL (≈ 2.63 µM). It also gave an MIC [3, 5] of 6.25 µg/mL (≈ 10.5 µM), an MIC (Proteus vulgaris HX 19) of 0.78 µg/mL (≈ 1.31 µM) and an MIC [4] of 3.13 µg/mL (≈ 5.27 µM).

With `O=C(O)Cn1nnnc1SCC1=C(C(=O)O)N2C(=O)C(NC(=O)[C@H](NC(=O)c3cnc4cccnc4c3O)c3ccc(O)cc3)[C@H]2SC1` (stereo partly drawn) [Example 14, 7-[D-α-(4-Hydroxy-1,5-naphthyridine-3-carboxamido)-α-p-hydroxyphenylacetamido]-3-(1-carboxymethyl-1,2,3,4-tetrazol-5-ylthiomethyl)-3-cephem-4-carboxylic Acid] the MIC [1, 7] was 1.56 µg/mL (≈ 2.25 µM), the MIC [2, 8] was 0.78 µg/mL (≈ 1.12 µM) and the MIC (Escherichia coli NIHJ; [7]) was 1.56 µg/mL (≈ 2.25 µM). It also gave an MIC [3, 7] of 3.13 µg/mL (≈ 4.51 µM).

`O=C(O)Cc1nnc(SCC2=C(C(=O)O)N3C(=O)C(NC(=O)[C@H](NC(=O)c4cnc5cccnc5c4O)c4ccc(O)cc4)[C@H]3SC2)s1` (stereo partly drawn) [Example 13, 7-[D-α-(4-Hydroxy-1,5-naphthyridine-3-carboxamido)-α-p-hydroxyphenylacetamido]-3-(5-carboxymethyl-1,3,4-thiadiazol-2-ylthiomethyl)-3-cephem-4-carboxylic Acid] showed an MIC [1, 7] of 1.56 µg/mL (≈ 2.2 µM), an MIC [2, 8] of 0.78 µg/mL (≈ 1.1 µM) and an MIC (Escherichia coli NIHJ; [7]) of 1.56 µg/mL (≈ 2.2 µM). The MIC [3, 7] was 3.13 µg/mL (≈ 4.41 µM).

Compound `NC(=O)OCC1=C(C(=O)O)N2C(=O)C(NC(=O)[C@H](NC(=O)c3cnc4cncnc4c3O)c3ccc(O)cc3)C2SC1` (stereo partly drawn) [Example 11, 7-[D-α-(5,8-Dihydro-5H-8-oxopyrido[3,2-d]pyrimidine-7-carboxamido)-α-(p-hydroxyphenyl)acetamido]-3-carbamoyloxymethyl-3-cephem-4-carboxylic acid] has an MIC [1, 5] of 6.25 µg/mL (≈ 10.5 µM), an MIC [2, 6] of 1.56 µg/mL (≈ 2.62 µM) and an MIC (Escherichia coli NIHJ; [5]) of 6.25 µg/mL (≈ 10.5 µM). For the same compound, the MIC [3, 5] was 12.5 µg/mL (≈ 21 µM), the MIC (Proteus vulgaris HX 19) was 1.56 µg/mL (≈ 2.62 µM) and the MIC [4] was 6.25 µg/mL (≈ 10.5 µM).

For `NC(=O)OCC1=C(C(=O)O)N2C(=O)C(NC(=O)[C@H](NC(=O)c3cnccc3O)c3cccc(N)c3)[C@H]2SC1` (stereo partly drawn) [Example 5, 7-[D-α-(4-Hydroxypyridine-3-carboxamido)-α-(m-aminophenyl)acetamido]-3-carbamoyloxymethyl-3-cephem-4-carboxylic acid], the MIC [1, 5] was 12.5 µg/mL (≈ 23 µM), the MIC [2, 6] was 0.39 µg/mL (≈ 0.719 µM) and the MIC (Escherichia coli NIHJ; [5]) was 6.25 µg/mL (≈ 11.5 µM). It also gave an MIC [3, 5] of 6.25 µg/mL (≈ 11.5 µM), an MIC (Proteus vulgaris HX 19) of 0.2 µg/mL (≈ 0.369 µM) and an MIC [4] of 3.13 µg/mL (≈ 5.77 µM).

`NC(=O)OCC1=C(C(=O)O)N2C(=O)C(NC(=O)[C@H](NC(=O)c3cnccc3O)c3ccc(O)cc3)[C@H]2SC1` (stereo partly drawn) [Example 4, 7-[D-α-(4-Hydroxypyridine-3-carboxamido)-α-p-hydroxyphenylacetamido]-3-carbamoyloxymethyl-3-cephem-4-carboxylic Acid] gave an MIC [1, 5] of 12.5 µg/mL (≈ 23 µM), an MIC [2, 6] of 0.39 µg/mL (≈ 0.718 µM) and an MIC (Escherichia coli NIHJ; [5]) of 12.5 µg/mL (≈ 23 µM). For the same compound, the MIC [3, 5] was 6.25 µg/mL (≈ 11.5 µM), the MIC (Proteus vulgaris HX 19) was 0.2 µg/mL (≈ 0.368 µM) and the MIC [4] was 3.13 µg/mL (≈ 5.76 µM).

For `NC(=O)OCC1=C(C(=O)O)N2C(=O)C(NC(=O)[C@H](NC(=O)c3cnc4cccnc4c3O)c3ccc(O)c(Cl)c3)C2SC1` (some centres unmarked) [Example 12], the MIC [1, 5] was 1.56 µg/mL (≈ 2.48 µM), the MIC [2, 6] was 1.56 µg/mL (≈ 2.48 µM) and the MIC (Escherichia coli NIHJ; [5]) was 3.13 µg/mL (≈ 4.98 µM). The MIC [3, 5] was 6.25 µg/mL (≈ 9.94 µM), the MIC (Proteus vulgaris HX 19) was 0.78 µg/mL (≈ 1.24 µM) and the MIC [4] was 6.25 µg/mL (≈ 9.94 µM).

In the case of `NC(=O)OCC1=C(C(=O)O)N2C(=O)C(NC(=O)[C@H](NC(=O)c3cnc4cccnc4c3O)c3ccccc3)[C@H]2SC1` (stereo partly drawn) [Example 8, 7-[D-α-(4-Hydroxy-1,5-naphthyridine-3-carboxamido)-α-phenylacetamido]-3-carbamoyloxymethyl-3-cephem-4-carboxylic acid], the MIC [1, 5] is reported as 1.56 µg/mL (≈ 2.7 µM), the MIC [2, 6] is reported as 0.78 µg/mL (≈ 1.35 µM) and the MIC (Escherichia coli NIHJ; [5]) is reported as 3.13 µg/mL (≈ 5.41 µM). For the same compound, the MIC [3, 5] was 6.25 µg/mL (≈ 10.8 µM), the MIC (Proteus vulgaris HX 19) was 0.78 µg/mL (≈ 1.35 µM) and the MIC [4] was 6.25 µg/mL (≈ 10.8 µM).
